Laboratory results as given in ChEMBL document CHEMBL1201862, “PubChem BioAssay data set” (2004).
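Method: 48-hour compound exposure of cells in 96-well plates, five concentrations, linear interpolation of endpoints. GI50: concentration for 50% inhibition of growth.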 Active and inactive are the calls of the source. Rule as the data show it: active = GI50 up to about 1.1 µM and inactive = higher.

Tests used:
Test in all cases: NCI anticancer screen, dose series, 48 h
[1] = system: NCI-H226
[2] = system: UACC-257
[3] = system: HT-29
[4] = system: OVCAR-8
[5] = system: KM12
[6] = system: NCI-H522
[7] = system: NCI/ADR-RES
[8] = system: SK-OV-3
[9] = system: CCRF-CEM
[10] = system: RXF 393
[11] = system: LOX IMVI
[12] = system: SF-268
[13] = system: SK-MEL-2
[14] = system: NCI-H460
[15] = system: K562
[16] = system: HOP-92
[17] = system: OVCAR-3
[18] = system: A498
[19] = system: OVCAR-4
[20] = system: Malme-3M

Row | SMILES | GI50 [1] | GI50 [2] | GI50 [3] | GI50 [4] | GI50 [5] | GI50 [6] | GI50 [7] | GI50 [8] | GI50 [9] | GI50 [10] | GI50 [11] | GI50 [12] | GI50 [13] | GI50 [14] | GI50 [15] | GI50 [16] | GI50 [17] | GI50 [18] | GI50 [19] | GI50 [20]
1 | Cc1ccnc2nc(-c3cccc(Cl)c3)cc(O)c12 | 3.4 µM (inactive) | > 100 µM (inactive) | 0.0401 µM (active) | 0.308 µM (active) | 0.0682 µM (active) | 0.0459 µM (active) | 0.1 µM (active) | 0.267 µM (active) | 0.0553 µM (active) | 2.77 µM (inactive) | 0.155 µM (active) | 20.7 µM (inactive) | 0.0675 µM (active) | 0.0386 µM (active) | < 0.0143 µM (active) | 2.43 µM (inactive) | 0.0279 µM (active) | 0.234 µM (active) | > 91.4 µM (inactive) | 
2 | OCC1CCCC(n2cnc3c(S)ncnc32)O1 (stereo not given) | > 100 µM (inactive) | > 100 µM (inactive) | > 100 µM (inactive) | > 100 µM (inactive) | > 100 µM (inactive) | > 100 µM (inactive) | > 100 µM (inactive) | > 100 µM (inactive) |  | > 100 µM (inactive) | > 100 µM (inactive) | > 100 µM (inactive) | > 100 µM (inactive) | > 100 µM (inactive) | > 100 µM (inactive) | > 100 µM (inactive) | > 100 µM (inactive) | > 100 µM (inactive) | > 100 µM (inactive) | > 100 µM (inactive)
3 | COc1ccc2c(c1)c1c(n2CCN(C)C)-c2cccc(OC)c2CC1 | 4.49 µM (inactive) | 17.3 µM (inactive) | 3.3 µM (inactive) | 18.7 µM (inactive) | 11.2 µM (inactive) | 3.88 µM (inactive) | 17.5 µM (inactive) | 18.2 µM (inactive) | 2.65 µM (inactive) |  | 13.4 µM (inactive) | 17.9 µM (inactive) | 15.6 µM (inactive) | 14.6 µM (inactive) | 2.02 µM (inactive) | 17.7 µM (inactive) | 16.1 µM (inactive) | 19.1 µM (inactive) | 15.8 µM (inactive) | 
4 | CC(C)(C)c1cc2c(c(C(C)(C)C)c1O)CC(=O)O2 | 30.8 µM (inactive) | 24.6 µM (inactive) | 28.3 µM (inactive) | 32.2 µM (inactive) | 20.7 µM (inactive) | 46 µM (inactive) | 21.1 µM (inactive) | 48.8 µM (inactive) | 29.6 µM (inactive) | 22.1 µM (inactive) | 38.5 µM (inactive) | 44.4 µM (inactive) | 21.5 µM (inactive) | 37.7 µM (inactive) | 34 µM (inactive) | < 0.01 µM (active) | 16.6 µM (inactive) | 32.1 µM (inactive) | 27.7 µM (inactive) | 
5 | Cc1c2c(c(C)n1-c1ccccc1)C(=O)N(CCN1CCN(c3cccc(C(F)(F)F)c3)CC1)C2=O | > 100 µM (inactive) | 7.67 µM (inactive) | 10.6 µM (inactive) | 76.4 µM (inactive) | 30.5 µM (inactive) | 14.1 µM (inactive) | 59.4 µM (inactive) | > 100 µM (inactive) |  | > 100 µM (inactive) | 37.1 µM (inactive) | > 100 µM (inactive) | 0.719 µM (active) | 45.3 µM (inactive) | 5.92 µM (inactive) | > 100 µM (inactive) | > 100 µM (inactive) | > 100 µM (inactive) | 7.35 µM (inactive) | > 100 µM (inactive)
6 | COC(=O)C1=CCC[C@H]2[C@@]1(COC(C)=O)CC[C@@H](C)[C@]2(C)CC(=O)c1ccoc1 | 15.8 µM (inactive) | 18.7 µM (inactive) | 8.65 µM (inactive) | 17.9 µM (inactive) | 14.4 µM (inactive) | 7.87 µM (inactive) | 14.7 µM (inactive) | 47.5 µM (inactive) | 10.3 µM (inactive) | 19.6 µM (inactive) | 10.8 µM (inactive) | 27.2 µM (inactive) | 15.7 µM (inactive) | 14.3 µM (inactive) |  | 10.9 µM (inactive) | 15.7 µM (inactive) | 16.7 µM (inactive) | 14.5 µM (inactive) | 
7 | CCOC(=O)C1CCC(=O)N1C(=O)c1ccc(Cl)cc1 (stereo not given) | > 100 µM (inactive) | > 100 µM (inactive) | > 100 µM (inactive) | > 100 µM (inactive) | > 100 µM (inactive) | > 100 µM (inactive) | > 100 µM (inactive) |  | > 100 µM (inactive) | > 100 µM (inactive) | > 100 µM (inactive) | > 100 µM (inactive) |  | > 100 µM (inactive) | > 100 µM (inactive) | > 100 µM (inactive) | > 100 µM (inactive) | > 100 µM (inactive) |  | > 100 µM (inactive)
8 | COc1cc2c(c(OC3OC(CO)C(O)C(O)C3O)c1)C(=O)CC(c1ccc(O)cc1)O2 (stereo not given) | > 100 µM (inactive) | > 100 µM (inactive) | > 100 µM (inactive) | > 100 µM (inactive) | > 100 µM (inactive) | > 100 µM (inactive) | > 100 µM (inactive) | > 100 µM (inactive) | > 10 µM (inactive) |  | > 100 µM (inactive) | > 100 µM (inactive) | > 100 µM (inactive) | > 100 µM (inactive) | > 100 µM (inactive) | > 100 µM (inactive) | > 100 µM (inactive) | > 100 µM (inactive) | > 100 µM (inactive) | 
9 | CC(=O)ON1C(=O)c2cccc3cccc(c23)C1=O |  | 23.8 µM (inactive) | 27.2 µM (inactive) | 27.1 µM (inactive) | 14.6 µM (inactive) | 14.6 µM (inactive) | 34.3 µM (inactive) | 34.4 µM (inactive) | 9.66 µM (inactive) | 7.23 µM (inactive) | 14.2 µM (inactive) | 22.6 µM (inactive) | 18.3 µM (inactive) | 7.93 µM (inactive) | 20.1 µM (inactive) | > 100 µM (inactive) | 19.5 µM (inactive) | 25.8 µM (inactive) | 11.7 µM (inactive) | 20 µM (inactive)
10 | CC(C)=CC1C(C(=O)Oc2ccccc2C(C)C)C1(C)C (stereo not given) |  | 19.5 µM (inactive) | 16.4 µM (inactive) | 31.7 µM (inactive) | 18.1 µM (inactive) | 16.6 µM (inactive) | 30 µM (inactive) | 31.6 µM (inactive) | 22.8 µM (inactive) | 16.9 µM (inactive) | 17.7 µM (inactive) | 35.5 µM (inactive) | 17.1 µM (inactive) | 22.4 µM (inactive) | 25.8 µM (inactive) | 25.5 µM (inactive) | 17.8 µM (inactive) | 19.7 µM (inactive) | 52 µM (inactive) | 16.3 µM (inactive)
11 | NNc1nnc(CCCCCCCCc2nnc(NN)n2N)n1N | > 100 µM (inactive) | > 100 µM (inactive) | > 100 µM (inactive) | 17.1 µM (inactive) | > 100 µM (inactive) | 38.7 µM (inactive) | 80.4 µM (inactive) | > 100 µM (inactive) | > 100 µM (inactive) | > 100 µM (inactive) | 21.4 µM (inactive) | 43.3 µM (inactive) | 84.5 µM (inactive) | > 100 µM (inactive) | 14 µM (inactive) | 28 µM (inactive) |  | > 100 µM (inactive) | > 100 µM (inactive) | 
12 | CC(C)(/N=N/C(C)(C)C(=N)N)C(=N)N | > 100 µM (inactive) | > 100 µM (inactive) | > 100 µM (inactive) | > 100 µM (inactive) | > 100 µM (inactive) | > 100 µM (inactive) | > 100 µM (inactive) | > 100 µM (inactive) |  | > 100 µM (inactive) | > 100 µM (inactive) | > 100 µM (inactive) | > 100 µM (inactive) | > 100 µM (inactive) | > 100 µM (inactive) | > 100 µM (inactive) | > 100 µM (inactive) | > 100 µM (inactive) | > 100 µM (inactive) | 
13 | CNc1ncnc2c1nc(NC1CCCC1)n2C1OC(CO)C(O)C1O (stereo not given) |  |  | > 100 µM (inactive) | > 100 µM (inactive) | > 100 µM (inactive) | > 100 µM (inactive) | > 100 µM (inactive) | > 100 µM (inactive) |  | > 100 µM (inactive) |  | > 100 µM (inactive) | > 100 µM (inactive) | > 100 µM (inactive) |  | > 100 µM (inactive) | > 100 µM (inactive) | > 100 µM (inactive) | > 100 µM (inactive) | > 100 µM (inactive)
14 | COc1ccc2[nH]c(Cl)c(/C=C3/C(=O)N(c4ccccc4)c4ccccc43)c2c1 |  | 7.13 µM (inactive) | 3.98 µM (inactive) | 6.44 µM (inactive) | 3.25 µM (inactive) | 3.25 µM (inactive) | 2.1 µM (inactive) | 3.5 µM (inactive) | 2.96 µM (inactive) | 15.9 µM (inactive) | 3.29 µM (inactive) | 5.08 µM (inactive) | 2.92 µM (inactive) | 3.55 µM (inactive) | 3.18 µM (inactive) | 13.7 µM (inactive) | 3.37 µM (inactive) | 8.17 µM (inactive) |  | 6.76 µM (inactive)
15 | C=C1CC[C@H]2C(C)=CC[C@H]3C(=C)C(=O)O[C@@H]3[C@@H]12 [EREMANTHIN] | > 100 µM (inactive) | > 100 µM (inactive) | > 100 µM (inactive) | > 100 µM (inactive) |  | > 100 µM (inactive) | > 100 µM (inactive) | > 100 µM (inactive) | > 100 µM (inactive) |  | > 100 µM (inactive) |  | > 100 µM (inactive) | > 100 µM (inactive) | > 100 µM (inactive) | > 100 µM (inactive) |  | > 100 µM (inactive) | > 100 µM (inactive) | > 100 µM (inactive)
